Assay results published in patent publication US20080026996A1, “Selective Vpac2 Receptor Reptide Agonists” (ELI LILLY AND COMPANY, priority 2004, published 2008).
Where a SMILES comes first, the peptide text is derived from it. Where no end group is shown, it is not given here. [ ]: non-standard residue; d: D form. The star is where a group is joined. hArg = N=C(N)NCCCC[C@H](N)C(=O)O; Hexanoyl = CCCCCC(=O)*; Aib = CC(C)(N)C(=O)O

What was measured:
[1] = Rat serum stability studies (remaining active peptide by DiscoveRx cAMP on CHO-VPAC2 cells); format: in vitro ADME
Method in brief: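 EC50 from a DiscoveRx cAMP read-out on CHO-VPAC2 cells indexes how much peptide stays active after 18 h in rat serum at 37° C without aprotinin, against an aprotinin-protected 4° C aliquot.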

[2] = test system: Normal Wistar rats; test: Intravenous glucose tolerance test (IVGTT); format: in vivo, rat; conditions: IVGTT, insulin
Protocol: Intravenous glucose tolerance test (IVGTT): Normal Wistar rats are fasted overnight and are anesthetized prior to the experiment. A blood sampling catheter is inserted into the rats. The compound is given in the jugular vein. Blood samples are taken from the carotid artery. A blood sample is drawn immediately prior to the injection of glucose along with the compound. After the initial blood sample, glucose mixed with compound is injected intravenously (i.v.). A glucose challenge of 0.5 g/kg body weight is given, injecting a total of 1.5 mL vehicle with glucose and agonist per kg body weight. The peptide concentration vary to produce the desired dose in μg/kg. Blood samples are drawn at 2, 4, 6 and 10 minutes after giving glucose. The control group of animals receives the same vehicle along with glucose, but with no compound added. In some instances, a 30 minute post-glucose blood sample is drawn. Aprotinin is added to the blood sample (250 kIU/ml blood). The serum is then analyzed for glucose and insulin using standard methodologies.
The assay uses a formulated and calibrated peptide stock in PBS. Normally, this stock is a prediluted 100 μM stock. However, a more concentrated stock with approximately 1 mg agonist per mL is used. The specific concentration is always known. Variability in the maximal response is mostly due to variability in the vehicle dose.

[3] = biological target: T1, human VPAC2 (Homo sapiens, UniProt P41587); test: Filter binding assay, membranes of stable VPAC2 cell line, 125I-labeled VIP tracer (Table 2); conditions: read-out: Human VPAC2 Receptor Binding
T1 construct: expressed in transfected cells
T1 sequence (P41587 24-438): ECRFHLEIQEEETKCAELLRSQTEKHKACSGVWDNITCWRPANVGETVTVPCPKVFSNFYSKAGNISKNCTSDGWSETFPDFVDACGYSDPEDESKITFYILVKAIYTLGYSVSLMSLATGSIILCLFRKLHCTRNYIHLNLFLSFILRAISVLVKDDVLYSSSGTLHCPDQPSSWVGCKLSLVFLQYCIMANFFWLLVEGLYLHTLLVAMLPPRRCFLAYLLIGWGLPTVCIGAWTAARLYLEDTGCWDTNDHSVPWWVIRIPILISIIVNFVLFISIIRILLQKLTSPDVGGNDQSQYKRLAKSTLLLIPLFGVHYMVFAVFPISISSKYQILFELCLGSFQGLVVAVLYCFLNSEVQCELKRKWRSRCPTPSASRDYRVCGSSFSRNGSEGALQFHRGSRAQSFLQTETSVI
Method in brief: (§1)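 Radioligand displacement was measured with 2.5 μg membrane protein per well and roughly 40000 cpm of iodinated tracer. After a 1-hour incubation, bound and free label were separated on BSA-blocked glass-fibre filters and quantified by scintillation.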

[4] = rat, in vivo, iv, 10 ug/kg
Protocol: (§3) An IVGTT with glucose is given immediately after T=0 to 6 animals per condition. Samples are taken at 0, 2, 4, 6, and 10 minutes after injection.
(§4) For cell handling, Plate 50,000 cells/well and keep in culture over night. Wash cell twice in PBS and add 50 μl/well stimulation medium consisting of PBS+1.2 MgCl2, 1.3 CaCl2, 2 glucose and 0.5 IBMX. Incubate 15 minutes and add 50 μl/well of the plasma samples (see layout below). Incubate 30 minutes, remove the supernatant and proceed as normal with the DiscoveRx assay. Prepare plates in duplicate. Protease and peptidase inhibitor are present in all plasma samples.

[5] = biological target: T1, human VPAC2; test: Alpha screen cAMP in vitro potency, human VPAC2 receptor; format: cell-based; conditions: cAMP generation; single result from two analyses performed in a single run; read-out: Human VPAC2 Receptor: Alpha Screen EC50
Method in brief: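 Under reduced light, acceptor beads accompany the stimuli during a 60-minute incubation of cells in stimulation buffer (50,000 per well point). Donor beads go in with lysis buffer for a further 60–120 minutes, and the resulting AlphaScreen signal indicates cAMP levels.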

[6] = in vivo; conditions: Wistar, rat, iv, 10 ug/kg
Protocol: as §3, §4

[7] = biological target: T1, human VPAC2; test: DiscoveRx cAMP in vitro potency, CHO-S cell line stably expressing human VPAC2 receptor; format: cell-based; conditions: cAMP generation; mean of two independent runs
Protocol: Also, the cells are washed twice. The cells are incubated in assay buffer plus IBMX for 15 minutes at room temperature. […] The stimuli are present for 30 minutes. Then, the assay buffer is gently removed. […] At day 3, the assay described above for the VPAC2 receptor cell line is performed.

[8] = biological target: T2, human VPAC1 (Homo sapiens, UniProt P32241); test: Filter binding assay, membranes of cells transiently transfected with human VPAC1, 125I-labeled VIP tracer (Table 2); parameters: expressed in transfected cells; conditions: read-out: Human VPAC1 Receptor Binding
T2 sequence (P32241 31-457): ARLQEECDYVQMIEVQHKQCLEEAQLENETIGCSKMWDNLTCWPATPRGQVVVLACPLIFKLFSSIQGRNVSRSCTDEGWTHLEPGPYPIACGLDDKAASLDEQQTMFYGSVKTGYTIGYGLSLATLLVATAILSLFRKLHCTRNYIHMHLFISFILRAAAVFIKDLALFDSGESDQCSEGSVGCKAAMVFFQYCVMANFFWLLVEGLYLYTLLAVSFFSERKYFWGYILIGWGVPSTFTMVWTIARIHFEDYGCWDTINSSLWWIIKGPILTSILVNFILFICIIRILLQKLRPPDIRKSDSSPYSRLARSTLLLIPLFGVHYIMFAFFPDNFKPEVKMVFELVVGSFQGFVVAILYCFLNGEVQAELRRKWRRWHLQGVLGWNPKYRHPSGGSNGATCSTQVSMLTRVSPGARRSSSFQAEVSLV
Method in brief: as §1

[9] = biological target: T3, rat VPAC1 receptor (Rattus norvegicus, UniProt P30083); test: DiscoveRx in vitro potency, CHO-PO cells transiently transfected with rat VPAC 1 receptor DNA; format: cell-based; parameters: expressed in transfected cells; host or cells: CHO-PO, transient
T3 sequence (P30083 31-459): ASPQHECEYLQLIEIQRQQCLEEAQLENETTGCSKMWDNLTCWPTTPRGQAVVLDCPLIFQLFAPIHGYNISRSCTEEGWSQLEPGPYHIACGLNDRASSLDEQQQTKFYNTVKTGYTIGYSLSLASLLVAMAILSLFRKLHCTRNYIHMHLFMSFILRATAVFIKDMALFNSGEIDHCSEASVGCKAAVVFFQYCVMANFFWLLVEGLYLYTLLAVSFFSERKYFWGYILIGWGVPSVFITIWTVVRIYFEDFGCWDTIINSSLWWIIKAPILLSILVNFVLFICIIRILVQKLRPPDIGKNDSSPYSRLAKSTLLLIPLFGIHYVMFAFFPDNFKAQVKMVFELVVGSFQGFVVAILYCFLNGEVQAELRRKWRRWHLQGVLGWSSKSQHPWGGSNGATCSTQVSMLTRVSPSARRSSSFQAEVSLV
Protocol: (§2) Also, the cells are washed twice. […] The stimuli are present for 30 minutes. Then, the assay buffer is gently removed.

[10] = biological target: T4, rat VPAC2 receptor (Rattus norvegicus, UniProt P35000); test: DiscoveRx in vitro potency, CHO-PO cells transiently transfected with rat VPAC 2 receptor DNA; format: cell-based; parameters: expressed in transfected cells; host or cells: CHO-PO, transient
T4 sequence (P35000 23-437): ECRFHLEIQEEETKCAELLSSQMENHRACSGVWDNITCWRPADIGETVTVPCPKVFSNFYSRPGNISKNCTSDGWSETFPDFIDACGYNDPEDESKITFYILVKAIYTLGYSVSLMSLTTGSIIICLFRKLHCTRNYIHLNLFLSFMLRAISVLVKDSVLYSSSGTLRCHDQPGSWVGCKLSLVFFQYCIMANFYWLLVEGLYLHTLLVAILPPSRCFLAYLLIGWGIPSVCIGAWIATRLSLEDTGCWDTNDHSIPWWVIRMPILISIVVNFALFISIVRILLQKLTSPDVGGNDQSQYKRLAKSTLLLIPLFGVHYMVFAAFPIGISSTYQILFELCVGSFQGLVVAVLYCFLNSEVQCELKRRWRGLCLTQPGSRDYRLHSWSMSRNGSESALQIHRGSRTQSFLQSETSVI
Protocol: as §2

| Compound | Rat Serum Stability (Estimated purity in % after 72 hours) [1] [%] | % increase AUC: Dose = 0.5 μg/kg ([2]; 0.5 μg/kg) [%] | % increase AUC: Dose = 10 μg/kg ([2]; 10 μg/kg) [%] | IC50 [3] [nM] | Exposure (10 μg/kg, Vdist in μg/(nM * kg)) [4] [µg/nM/kg] | EC50 [5] [nM] | AUC(0-t) [6] [nM·h] | Cmax [6] [nM] | half-life [6] [min] | EC50 [7] [nM] | IC50 [8] [nM] | EC50 [9] [nM] | Rat Serum Stability (estimated purity in % after 18 hours) [1] [%] | EC50 [10] [nM] |
| --- | --- | --- | --- | --- | --- | --- | --- | --- | --- | --- | --- | --- | --- | --- |
| HSDAVFTDNYTRLLAKVAAKKYLQSIKNKRYGGPSSGAPPPS [Agonist P89] | <0.4 | 110 | 280 | 0.15 | 0.64 | 1.23 | 0.523 | 5.45 | 1.32 | 0.7 | 162 | 0.02 |  |  |
| CCCCCC(=O)N[C@@H](Cc1c[nH]cn1)C(=O)N[C@@H](CO)C(=O)N[C@@H](CC(=O)O)C(=O)N[C@@H](C)C(=O)N[C@H](C(=O)N[C@@H](Cc1ccccc1)C(=O)N[C@H](C(=O)N[C@@H](CC(=O)O)C(=O)N[C@@H](CC(N)=O)C(=O)N[C@@H](Cc1ccc(O)cc1)C(=O)N[C@H](C(=O)N[C@@H](CCCCNC(=N)N)C(=O)N[C@@H](CC(C)C)C(=O)N[C@@H](CCCNC(=N)N)C(=O)NC(C)(C)C(=O)N[C@@H](CCC(N)=O)C(=O)N[C@H](C(=O)N[C@@H](C)C(=O)N[C@@H](C)C(=O)NC(C)(C)C(=O)N[C@@H](CCCCN)C(=O)N[C@@H](Cc1ccc(O)cc1)C(=O)N[C@@H](CC(C)C)C(=O)N[C@@H](CCC(N)=O)C(=O)N[C@@H](CO)C(=O)N[C@H](C(=O)N[C@@H](CCCCNC(=N)N)C(=O)N[C@@H](CCCCNC(=N)N)C(=O)NCC(=O)NCC(=O)N1CCC[C@H]1C(=O)N[C@@H](CO)C(=O)N[C@@H](CO)C(=O)NCC(=O)N[C@@H](C)C(=O)N1CCC[C@H]1C(=O)N1CCC[C@H]1C(=O)N1CCC[C@H]1C(=O)N[C@@H](CS)C(N)=O)[C@@H](C)CC)C(C)C)[C@@H](C)O)[C@@H](C)O)C(C)C [Agonist P333] (Hexanoyl-HSDAVFTDNYT[hArg]LR[Aib]QVAA[Aib]KYLQSI[hArg][hArg]GGPSSGAPPPC-NH2) | 61.2 |  |  | 9.71 |  | 0.75 |  |  |  |  | > 3000 | 1.37 | 40.90 | 0.13 |
